{"source": "patent US9399649B2", "about": "“Compounds for treating spinal muscular atrophy” (PTC Therapeutics Inc., priority 2012, dated 2016)", "key": {"[1]": {"system": "Smn protein", "assay": "Smn protein assay in cultured cells (SMN HTRF)", "format": "cell-based, human", "conditions": "SMA patient fibroblast cells (GM03813), 48 hours; for maximum fold (Fold) increase of Smn protein: 7-point concentration data, relative to vehicle control; for EC1.5x for Smn protein expression: 7-point concentration curve, concentration producing 1.5 times Smn protein vs DMSO vehicle", "outline": "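SMA patient fibroblasts, 5,000 per well in DMEM-10% FBS, exposed 48 h at 37° C. to a 7-point, 3.16-fold compound series in triplicate. RIPA lysates read by SMN HTRF (665/620 nm, overnight at room temperature); ΔF over blank expressed as fold of vehicle.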"}, "[2]": {"system": "full length SMN2 minigene mRNA containing SMN2 exon 7", "assay": "SMN2 minigene mRNA splicing RT-qPCR assay in cultured cells", "format": "cell-based, human", "conditions": "Homo sapiens, HEK293-H; HEK293H cells stably transfected with SMN2-A minigene, 24 hours, 7-point concentration curve; concentration giving 1.5-fold full length SMN2 mRNA vs vehicle; read-out: EC1.5x for production of full length SMN2 mRNA", "outline": "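HEK293H cells stably carrying SMN2-A minigene treated 24 h (37 °C) with compound, 7-point 3.16-fold dilution, duplicates. Multiplex RT-qPCR on lysate with exon 7/luciferase primers and exon 7–8 junction probe (minigene-specific). Full-length transcript normalised to GAPDH by modified ΔΔCt, expressed relative to vehicle-treated cells.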"}}}
{"compound": "COc1ccccc1-c1cc2ccc(N3C[C@@H](C)N[C@@H](C)C3)cc2c(=O)o1", "note": "[Cpd 23, 7-[(3R,5S)-3,5-dimethylpiperazin-1-yl]-3-(2-methoxyphenyl)-1H-isochromen-1-one]", "values": [{"measurement": "maximum fold (Fold) increase of Smn protein", "setting": "[1]", "value": "* (A maximum fold increase of ≦1.2 is indicated by one star (*))"}, {"measurement": "EC (1.5-fold)", "setting": "[2]", "value": "1 to 3", "unit": "µM"}, {"measurement": "melting point", "value": "154 to 157", "unit": "°C"}]}
{"compound": "CN1CCN(c2ccc3cc(-c4ccc5c(c4)OCCO5)oc(=O)c3c2)CC1", "note": "[Cpd 38, 3-(2,3-dihydro-1,4-benzodioxin-6-yl)-7-(4-methylpiperazin-1-yl)-1H-isochromen-1-one]", "values": [{"measurement": "maximum fold (Fold) increase of Smn protein", "setting": "[1]", "value": "* (A maximum fold increase of ≦1.2 is indicated by one star (*))"}, {"measurement": "EC (1.5-fold)", "setting": "[2]", "value": "3 to 30", "unit": "µM"}, {"measurement": "melting point", "value": "163 to 165", "unit": "°C"}]}
{"compound": "O=c1oc(-c2cn3ccccc3n2)cc2ccc(N3CCNCC3)cc12", "note": "[Cpd 26, 3-(imidazo[1,2-a]pyridin-2-yl)-7-(piperazin-1-yl)-1H-isochromen-1-one]", "values": [{"measurement": "maximum fold (Fold) increase of Smn protein", "setting": "[1]", "value": "* (A maximum fold increase of ≦1.2 is indicated by one star (*))"}, {"measurement": "EC (1.5-fold)", "setting": "[2]", "value": "1 to 3", "unit": "µM"}, {"measurement": "melting point", "value": "248 °C (dec.)"}]}
{"compound": "O=c1oc(-c2nc3ccccc3s2)cc2ccc(N3CCCNCC3)cc12", "note": "[Cpd 10, 3-(1,3-benzothiazol-2-yl)-7-(1,4-diazepan-1-yl)-1H-isochromen-1-one]", "values": [{"measurement": "maximum fold (Fold) increase of Smn protein", "setting": "[1]", "value": "* (A maximum fold increase of ≦1.2 is indicated by one star (*))"}, {"measurement": "EC (1.5-fold)", "setting": "[2]", "value": "1 to 3", "unit": "µM"}, {"measurement": "melting point", "value": "277 to 279", "unit": "°C"}]}
{"compound": "CCN1CCN(c2ccc3cc(-c4cn5cc(C)ncc5n4)oc(=O)c3c2)C[C@@H]1C", "note": "[Cpd 120, 7-[(3S)-4-ethyl-3-methylpiperazin-1-yl]-3-(6-methylimidazo[1,2-a]pyrazin-2-yl)-1H-isochromen-1-one]", "values": [{"measurement": "EC1.5x for Smn protein expression", "setting": "[1]", "value": "**** (an EC1.5×≦0.3 nM is indicated by four stars (****))"}, {"measurement": "maximum fold (Fold) increase of Smn protein", "setting": "[1]", "value": "***** (a fold increase >1.65 is indicated by five stars (*****))"}, {"measurement": "EC (1.5-fold)", "setting": "[2]", "value": "≤ 0.1", "unit": "µM"}, {"measurement": "melting point", "value": "255 to 260", "unit": "°C"}]}
{"compound": "COCCN1CCN(c2ccc3cc(-c4cn5cc(C)nc(C)c5n4)oc(=O)c3c2)CC1", "note": "[Cpd 85, 3-(6,8-dimethylimidazo[1,2-a]pyrazin-2-yl)-7-[4-(2-methoxyethyl)piperazin-1-yl]-1H-isochromen-1-one]", "values": [{"measurement": "EC1.5x for Smn protein expression", "setting": "[1]", "value": "*** (an EC1.5× between >0.3 nM and ≦1 nM is indicated by three stars (***))"}, {"measurement": "maximum fold (Fold) increase of Smn protein", "setting": "[1]", "value": "***** (a fold increase >1.65 is indicated by five stars (*****))"}, {"measurement": "EC (1.5-fold)", "setting": "[2]", "value": "0.1 to 0.3", "unit": "µM"}, {"measurement": "melting point", "value": "192 to 194", "unit": "°C"}]}
{"compound": "Cc1cn2cc(-c3cc4ccc(N5C[C@@H](C)N(C)[C@@H](C)C5)cc4c(=O)o3)nc2c(C)n1", "note": "[Cpd 149, 3-(6,8-dimethylimidazo[1,2-a]pyrazin-2-yl)-7-[(3R,5S)-3,4,5-trimethylpiperazin-1-yl]-1H-isochromen-1-one]", "values": [{"measurement": "EC1.5x for Smn protein expression", "setting": "[1]", "value": "**** (an EC1.5×≦0.3 nM is indicated by four stars (****))"}, {"measurement": "maximum fold (Fold) increase of Smn protein", "setting": "[1]", "value": "***** (a fold increase >1.65 is indicated by five stars (*****))"}, {"measurement": "EC (1.5-fold)", "setting": "[2]", "value": "≤ 0.1", "unit": "µM"}, {"measurement": "melting point", "value": "261 to 266", "unit": "°C"}]}
{"compound": "CCN1CCN(c2ccc3cc(-c4cn5cc(C)ncc5n4)oc(=O)c3c2)C[C@H]1C", "note": "[Cpd 126, 7-[(3R)-4-ethyl-3-methylpiperazin-1-yl]-3-(6-methylimidazo[1,2-a]pyrazin-2-yl)-1H-isochromen-1-one]", "values": [{"measurement": "EC1.5x for Smn protein expression", "setting": "[1]", "value": "**** (an EC1.5×≦0.3 nM is indicated by four stars (****))"}, {"measurement": "maximum fold (Fold) increase of Smn protein", "setting": "[1]", "value": "**** (a fold increase between >1.5 and ≦1.65 is indicated by four stars (****))"}, {"measurement": "EC (1.5-fold)", "setting": "[2]", "value": "≤ 0.1", "unit": "µM"}, {"measurement": "melting point", "value": "238 to 241", "unit": "°C"}]}
{"compound": "Cc1cn2cc(-c3cc4ccc(N5CCN(C)[C@@H](C)C5)cc4c(=O)o3)nc2c(C)n1", "note": "[Cpd 66, 3-(6,8-dimethylimidazo[1,2-a]pyrazin-2-yl)-7-[(3S)-3,4-dimethylpiperazin-1-yl]-1H-isochromen-1-one]", "values": [{"measurement": "EC1.5x for Smn protein expression", "setting": "[1]", "value": "**** (an EC1.5×≦0.3 nM is indicated by four stars (****))"}, {"measurement": "maximum fold (Fold) increase of Smn protein", "setting": "[1]", "value": "***** (a fold increase >1.65 is indicated by five stars (*****))"}, {"measurement": "EC (1.5-fold)", "setting": "[2]", "value": "≤ 0.1", "unit": "µM"}, {"measurement": "melting point", "value": "255 to 256", "unit": "°C"}]}
{"compound": "COc1cc(-c2cc3ccc(N4CCN[C@@H](C)C4)cc3c(=O)o2)ccc1F", "note": "[Cpd 47, 3-(4-fluoro-3-methoxyphenyl)-7-[(3S)-3-methylpiperazin-1-yl]-1H-isochromen-1-one]", "values": [{"measurement": "maximum fold (Fold) increase of Smn protein", "setting": "[1]", "value": "* (A maximum fold increase of ≦1.2 is indicated by one star (*))"}, {"measurement": "EC (1.5-fold)", "setting": "[2]", "value": "3 to 30", "unit": "µM"}, {"measurement": "melting point", "value": "118 to 120", "unit": "°C"}]}
{"compound": "Cc1nc(Cl)cn2cc(-c3cc4ccc(N5CCN(C)[C@@H](C)C5)cc4c(=O)o3)nc12", "note": "[Cpd 112, 3-(6-chloro-8-methylimidazo[1,2-a]pyrazin-2-yl)-7-[(3S)-3,4-dimethylpiperazin-1-yl]-1H-isochromen-1-one]", "values": [{"measurement": "EC1.5x for Smn protein expression", "setting": "[1]", "value": "** (an EC1.5× between >1 μM, and ≦3 nM is indicated by two stars (**))"}, {"measurement": "maximum fold (Fold) increase of Smn protein", "setting": "[1]", "value": "***** (a fold increase >1.65 is indicated by five stars (*****))"}, {"measurement": "EC (1.5-fold)", "setting": "[2]", "value": "1 to 3", "unit": "µM"}, {"measurement": "melting point", "value": "270 to 275", "unit": "°C"}]}
{"compound": "Cc1cn2cc(-c3cc4ccc(N5CCN(C(C)C)CC5)cc4c(=O)o3)cc2c(C)n1", "note": "[Cpd 78, 3-(1,3-dimethylpyrrolo[1,2-a]pyrazin-7-yl)-7-[4-(propan-2-yl)piperazin-1-yl]-1H-isochromen-1-one]", "values": [{"measurement": "maximum fold (Fold) increase of Smn protein", "setting": "[1]", "value": "*** (a fold increase between >1.35 and ≦1.5 is indicated by three stars (***))"}, {"measurement": "EC (1.5-fold)", "setting": "[2]", "value": "≤ 0.1", "unit": "µM"}, {"measurement": "melting point", "value": "213 to 215", "unit": "°C"}]}
{"compound": "Cc1cn2cc(-c3cc4ccc(N5C[C@@H](C)N[C@@H](C)C5)cc4c(=O)o3)nc2cn1", "note": "[Cpd 58, 7-[(3R,5S)-3,5-dimethylpiperazin-1-yl]-3-(6-methylimidazo[1,2-a]pyrazin-2-yl)-1H-isochromen-1-one]", "values": [{"measurement": "EC1.5x for Smn protein expression", "setting": "[1]", "value": "**** (an EC1.5×≦0.3 nM is indicated by four stars (****))"}, {"measurement": "maximum fold (Fold) increase of Smn protein", "setting": "[1]", "value": "***** (a fold increase >1.65 is indicated by five stars (*****))"}, {"measurement": "EC (1.5-fold)", "setting": "[2]", "value": "≤ 0.1", "unit": "µM"}, {"measurement": "melting point", "value": "279 to 281", "unit": "°C"}]}
{"compound": "C[C@H]1CN(c2ccc3cc(-c4ccccn4)oc(=O)c3c2)CCN1", "note": "[Cpd 34, 7-[(3S)-3-methylpiperazin-1-yl]-3-(pyridin-2-yl)-1H-isochromen-1-one]", "values": [{"measurement": "EC1.5x for Smn protein expression", "setting": "[1]", "value": "* (An EC1.5× for Smn protein expression between >3 μM and <10 μM is indicated by one star (*))"}, {"measurement": "maximum fold (Fold) increase of Smn protein", "setting": "[1]", "value": "*** (a fold increase between >1.35 and ≦1.5 is indicated by three stars (***))"}, {"measurement": "EC (1.5-fold)", "setting": "[2]", "value": "0.3 to 1", "unit": "µM"}, {"measurement": "melting point", "value": "343 to 345", "unit": "°C"}]}
{"compound": "Cc1cn2cc(-c3cc4ccc(C5=CCNCC5)cc4c(=O)o3)nc2c(C)n1", "note": "[Cpd 88, 3-(6,8-dimethylimidazo[1,2-a]pyrazin-2-yl)-7-(1,2,3,6-tetrahydropyridin-4-yl)-1H-isochromen-1-one]", "values": [{"measurement": "EC1.5x for Smn protein expression", "setting": "[1]", "value": "**** (an EC1.5×≦0.3 nM is indicated by four stars (****))"}, {"measurement": "maximum fold (Fold) increase of Smn protein", "setting": "[1]", "value": "**** (a fold increase between >1.5 and ≦1.65 is indicated by four stars (****))"}, {"measurement": "EC (1.5-fold)", "setting": "[2]", "value": "≤ 0.1", "unit": "µM"}, {"measurement": "melting point", "value": "266 °C (dec.)"}]}
{"compound": "COc1ccc(-c2cc3ccc(N4CCN[C@@H](C)C4)cc3c(=O)o2)cc1OC", "note": "[Cpd 30, 3-(3,4-dimethoxyphenyl)-7-[(3S)-3-methylpiperazin-1-yl]-1H-isochromen-1-one]", "values": [{"measurement": "EC1.5x for Smn protein expression", "setting": "[1]", "value": "**** (an EC1.5×≦0.3 nM is indicated by four stars (****))"}, {"measurement": "maximum fold (Fold) increase of Smn protein", "setting": "[1]", "value": "**** (a fold increase between >1.5 and ≦1.65 is indicated by four stars (****))"}, {"measurement": "EC (1.5-fold)", "setting": "[2]", "value": "≤ 0.1", "unit": "µM"}, {"measurement": "melting point", "value": "155 to 157", "unit": "°C"}]}
